Structures can show the parent of a compound that is named as a salt.
Tests used:
human α1D receptor = target: T1, human α1D receptor (Homo sapiens, UniProt P25100); experiment: Radioligand binding assay ([3H]prazosin) at cloned human α1D adrenergic receptor; details: membranes of LM(tk-) cells, [3H]prazosin 0.5 nM; for Ki: read-out: hα1d pKi (converted)
T1 sequence (P25100 1-572): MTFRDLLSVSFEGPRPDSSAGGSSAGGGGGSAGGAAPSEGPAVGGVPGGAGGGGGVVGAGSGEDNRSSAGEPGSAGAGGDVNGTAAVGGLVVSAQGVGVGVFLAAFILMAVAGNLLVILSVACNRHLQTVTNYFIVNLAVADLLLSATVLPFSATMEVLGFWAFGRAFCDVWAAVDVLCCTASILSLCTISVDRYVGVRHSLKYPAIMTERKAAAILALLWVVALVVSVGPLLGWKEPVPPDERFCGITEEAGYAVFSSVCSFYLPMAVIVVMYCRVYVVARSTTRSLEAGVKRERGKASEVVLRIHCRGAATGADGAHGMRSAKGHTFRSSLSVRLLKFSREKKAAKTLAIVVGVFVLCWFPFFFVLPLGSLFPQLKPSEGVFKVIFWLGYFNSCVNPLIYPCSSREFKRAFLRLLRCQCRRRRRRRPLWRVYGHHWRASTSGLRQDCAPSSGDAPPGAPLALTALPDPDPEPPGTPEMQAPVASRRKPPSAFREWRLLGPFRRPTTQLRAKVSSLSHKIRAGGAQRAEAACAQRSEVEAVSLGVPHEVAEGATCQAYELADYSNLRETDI
Procedure: (§1) These cell lines were prepared by transfecting the cloned cDNA or cloned genomic DNA or constructs containing both genomic DNA and cDNA encoding the human u-adrenergic receptors as follows:
The cells were grown, in a controlled environment ([…]., 5% CO2), as monolayers in Dulbecco's modified Eagle's Medium (GIBCO, Grand Island, N.Y.) containing 25 mM glucose and supplemented with 10% bovine calf serum, 100 units/ml penicillin g, and 100 μg/ml streptomycin sulfate.
(§2) The construct involved ligating three partial overlapping fragments: a 5′ 0.6 kb HincII genomic clone, a central 1.8 EcoRI hippocampal cDNA clone, and a 3′ 0.6Kb PstI genomic clone. The hippocampal cDNA fragment overlaps with the 5′ and 3′ genomic clones so that the HincII and PstI sites at the 5′ and 3′ ends of the cDNA clone, respectively, were utilized for ligation. This full-length clone was cloned into the KpnI site of the expression vector, using the 5′ and 3′ KpnI sites of the fragment, derived from vector (i.e., pBluescript) and 3′-untranslated sequences, respectively. Stable cell lines were selected as described above. […] Radioligand Binding Assays: Transfected cells from culture flasks were scraped into 5 ml of 5 mM Tris-HCl, 5 mM EDTA, pH 7.5, and lysed by sonication. The cell lysates were centrifuged at 1000 rpm for 5 min at 4° C., and the supernatant was centrifuged at 30,000×g for 20 min at 4° C. The pellet was suspended in 50 mM Tris-HCl, 1 mM MgCl2, and 0.1% ascorbic acid at pH 7.5. Binding of the al antagonist [^3H]prazosin (0.5 nM, specific activity 76.2 Ci/mmol) to membrane preparations of LM(tk-) cells was done in a final volume of 0.25 ml and incubated at 37° C. for 20 min. Nonspecific binding was determined in the presence of 10 μM phentolamine. The reaction was stopped by filtration through GF/B filters using a cell harvester.

human α1A receptor = target: T2, human α1A receptor (Homo sapiens, UniProt P35348); experiment: Radioligand binding assay ([3H]prazosin) at cloned human α1A adrenergic receptor; details: membranes of LM(tk-) cells, [3H]prazosin 0.5 nM; for Ki: read-out: hα1a pKi (converted)
T2 sequence (P35348 1-466): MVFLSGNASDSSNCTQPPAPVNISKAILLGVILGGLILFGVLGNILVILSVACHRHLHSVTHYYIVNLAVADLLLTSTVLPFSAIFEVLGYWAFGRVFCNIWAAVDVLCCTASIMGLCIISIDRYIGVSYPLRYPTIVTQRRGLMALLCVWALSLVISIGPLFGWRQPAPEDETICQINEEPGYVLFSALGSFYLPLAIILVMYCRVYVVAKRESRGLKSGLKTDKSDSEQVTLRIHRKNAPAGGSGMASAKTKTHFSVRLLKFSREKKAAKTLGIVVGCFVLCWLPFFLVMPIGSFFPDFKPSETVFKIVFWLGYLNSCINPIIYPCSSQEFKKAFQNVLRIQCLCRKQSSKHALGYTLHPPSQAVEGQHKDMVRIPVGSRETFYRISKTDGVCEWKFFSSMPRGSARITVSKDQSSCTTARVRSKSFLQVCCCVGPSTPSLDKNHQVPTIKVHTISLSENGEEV
Procedure: as §1, §2

human α1B receptor = target: T3, human α1B receptor (Homo sapiens, UniProt P35368); experiment: Radioligand binding assay ([3H]prazosin) at cloned human α1B adrenergic receptor; details: membranes of LM(tk-) cells, [3H]prazosin 0.5 nM; for Ki: read-out: hα1b pKi (converted)
T3 sequence (P35368 1-520): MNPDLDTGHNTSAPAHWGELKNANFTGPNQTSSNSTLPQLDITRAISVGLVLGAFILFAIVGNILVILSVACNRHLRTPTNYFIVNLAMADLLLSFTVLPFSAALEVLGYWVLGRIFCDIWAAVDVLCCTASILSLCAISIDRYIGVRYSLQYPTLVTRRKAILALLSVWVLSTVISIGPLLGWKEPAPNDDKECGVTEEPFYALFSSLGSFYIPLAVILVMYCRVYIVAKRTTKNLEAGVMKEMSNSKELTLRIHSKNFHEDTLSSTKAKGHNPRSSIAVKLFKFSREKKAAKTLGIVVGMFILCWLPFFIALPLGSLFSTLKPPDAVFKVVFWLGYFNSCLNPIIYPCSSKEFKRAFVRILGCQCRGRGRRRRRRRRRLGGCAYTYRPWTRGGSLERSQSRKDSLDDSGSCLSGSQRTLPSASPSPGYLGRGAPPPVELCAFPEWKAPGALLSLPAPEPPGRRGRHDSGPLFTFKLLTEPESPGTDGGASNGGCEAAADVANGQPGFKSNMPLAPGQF
Procedure: as §1
The construct involved ligating the full-length containing EcoRI brainstem cDNA fragment from λ ZapII into the expression vector. Stable cell lines were selected as described above.
as §2

For COC(=O)N1C(C)=NC(C)=C(C(=O)NCCCN2CCC(C(=O)OC)(c3ccccc3)CC2)C1c1ccc(F)c(F)c1 (centres unmarked), the melting point was 55 to 57 °C.

Molecule COCN1C(C)=NC(C)=C(C(=O)NCCCN2CCC(C(=O)OC)(c3ccccc3)CC2)C1c1ccc(F)c(F)c1 (centres unmarked) has a melting point of 53 to 57 °C.

With COCC1=C(C(=O)OC)C(c2ccc(F)c(F)c2)N(C(=O)NCCCN2CCC(c3ccccc3)(c3cccs3)CC2)C(=O)N1 (centres unmarked) the melting point was 157 to 159 °C.

In the case of COCC1=C(C(=O)OC)C(c2ccc(F)c(F)c2)N(C(=O)NCCCN2CCC(c3ccccc3)(c3ccco3)CC2)C(=O)N1 (centres unmarked), the melting point was 153 to 155 °C.

Molecule COCC1=NC(C)=C(C(=O)OC)C(c2ccc(F)c(F)c2)N1CCCCCN1CCC(c2ccc(C)cc2)(c2ccccc2C)CC1 (centres unmarked) (as salt: HCl) has a melting point of 137 to 140 °C.

Work on COC(=O)C1=C(C)N=C(C)N(CCCCCN2CCC(C(=O)OC)(c3ccccc3)CC2)C1c1ccc(F)c(F)c1 (centres unmarked) (as salt: HCl) [Example 17, 6-(3,4-Difluorophenyl)-1,6-dihydro-5-methoxycarbonyl-1-(5-(4-methoxycarbonyl-4-phenylpiperidin-1-yl)-pentyl)-2,4-dimethylpyrimidine] yielded a melting point of 170 to 176 °C.

COC(=O)C1=C(C)N=C(C)N(CCCCCNCCCc2ccccc2)C1c1ccc(F)c(F)c1 (centres unmarked) (as salt: HCl) [Example 55, 6-(3,4-Difluorophenyl)-1,6-dihydro-5-methoxycarbonyl-2,4-dimethyl-1-(5-(3-phenylpropylamino)pentyl)-pyrimidine] gave a melting point of 95 to 97 °C.

With COC(=O)C1=C(C)NC(=O)N(C(=O)NCCCN2CCC(c3ccccn3)CC2)C1c1ccc(F)c(F)c1 (centres unmarked) (as salt: hydrochloride) [Example 15, 6-(3,4-Difluorophenyl)-5-methoxycarbonyl-4-methyl-2-oxo-1-{N-[4-(2-pyridyl)-piperidine-1-yl]propyl}carboxamido-1,2,3,6-tetrahydropyrimidine Dihydrochloride] the melting point was 170 to 174 °C.

COC(=O)C1=C(C)N=C(C)N(CCCC(O)CN2CCC(c3ccccn3)CC2)C1c1ccc(F)c(F)c1 (single isomer, unassigned; (+)) (as salt: HCl) [Example 56, (+)-6-(3,4-Difluorophenyl)-1,6-dihydro-1-(4-hydroxy-5-(4-(2-pyridyl)piperidin-1-yl)pentyl)-5-methoxycarbonyl-2,4-dimethylpyrimidine] showed a melting point of 163 to 165 °C.

With CCC1=C(C(N)=O)C(c2ccc(F)c(F)c2)N(C(=O)NCCCN2CCC(C(=O)OC)(c3ccccc3)CC2)C(=O)N1 (single isomer, unassigned; (+)) [Example 14, (+)-5-Carboxamido-6-(3,4-difluorophenyl)-4-ethyl-1-{N-[3-(4-methoxycarbonyl-4-phenylpiperidin-1-yl)propyl]}carboxamido-2-oxo-1,2,3,6-tetrhydropyrimidine] the “hα1d pKi” value (human α1D receptor) was 6.46, the “hα1a pKi” value (human α1A receptor) was 9.68 and the “hα1b pKi” value (human α1B receptor) was 6.59.

Work on COC(=O)C1=C(C)NC(=O)N(C(=O)NCCCN2CCC(c3ccccn3)CC2)C1c1ccc(F)c(F)c1 (centres unmarked) [Example 15, 6-(3,4-Difluorophenyl)-5-methoxycarbonyl-4-methyl-2-oxo-1-{N-[4-(2-pyridyl)-piperidine-1-yl]propyl}carboxamido-1,2,3,6-tetrahydropyrimidine Dihydrochloride] yielded a Ki (human α1D receptor) of 977 nM, a Ki (human α1A receptor) of 0.389 nM and a Ki (human α1B receptor) of 468 nM.

In the case of COC(=O)C1=C(C)NC(=O)N(C(=O)NCCCN2CCC(c3ccccn3)CC2)C1c1ccc2nonc2c1 (centres unmarked) [Example 16, 6-(3,4-Benzofurazan-5-yl)-5-methoxycarbonyl-4-methyl-2-oxo-1-{N-[4-(2-pyridyl)-piperidin-1-yl]propyl}carboxamido-1,2,3,6-tetrahydropyrimidine Dihydrochloride], the Ki (human α1D receptor) was 575 nM, the Ki (human α1A receptor) was 0.288 nM and the Ki (human α1B receptor) was 427 nM.

For COC(=O)C1=C(C)N=C(C)N(CCCCCN2CCC(C(=O)OC)(c3ccccc3)CC2)C1c1ccc(F)c(F)c1 (centres unmarked) [Example 17, 6-(3,4-Difluorophenyl)-1,6-dihydro-5-methoxycarbonyl-1-(5-(4-methoxycarbonyl-4-phenylpiperidin-1-yl)-pentyl)-2,4-dimethylpyrimidine], the “hα1d pKi” value (human α1D receptor) was 6.17 and the “hα1b pKi” value (human α1B receptor) was 6.32.

From patent US20020010186A1, “Dihydropyrimidines and uses thereof” (Synaptic Pharmaceutical Corporation, priority 1996, published 2002)
